Data set [1] in a line: Zn^2+ titration of ZIGIRs by fluorescence emission (Hill plot). It is filed as binding. On the procedure:
UV-Vis spectra were recorded in a 1-cm path quartz cell on a Shimadzu 2401 PC spectrometer. Fluorescence excitation and emission spectra were recorded on a Fluorolog 3 spectrometer (Jobin-Yvon Horiba, Edison, N.J.). Zinc titration was performed by adding ZIGIRs (0.5 μM final concentration) to buffered Zn^2+ solutions containing 100 mM HEPES (pH 7.4). Nitrilotriacetic acid (NTA, 10 mM) and varying concentrations of ZnSO4 (0-9 mM) were mixed to reach free Zn^2+ concentrations between 0.1 nM and 40 nM (Li et al., 2011). Zn^2+ concentrations above 40 nM were controlled by iminodiacetate (IDA, 10 mM) and varying amounts of ZnSO4 (0-9.7 mM) in 100 mM HEPES (pH 7.4; Sasaki et al., 2011). To determine Zn^2+ binding dissociation constants (Kd(Zn^2+)), the Zn^2+ titration data were fitted to the least square exponential equation (Prism 7). Fluorescence quantum yields of ZIGIRs at pH 7.5 were determined using rhodamine 6G as the reference (Φfl=0.94 in MeOH; Magde et al., 2002). An example in shown FIGS. 11A0B. To examine the pH sensitivity of ZIGIRs, the fluorescence emission spectra was recorded from pH 3-9.4 in either nominally Zn^2+-free solutions containing 5 mM iminodiacetate or in 25 μM ZnSO4 solutions. The pH was controlled with 10 mM pH buffers including chloroacetic acid (pH 3.1), acetate (pH 4.1 and 5.0), 2-morpholinoethanesulfonic acid (MES, pH 6.14), HEPES (pH 7.5) and N-cyclohexyl-2-aminoethanesulfonic acid (CHES, pH 9.4).

The test system of a further data set is MIN-6 β cells. As to the kind of experiment: Confocal imaging of ZIGIR-labeled live β cells. It is filed as cell-based, mouse. On the procedure:
To assess ZIGIRs' ability for imaging granular Zn^2+ in living cells, an insulin secreting β cell (MIN-6 cell) was labeled with ZIGIRs. After dye loading (0.5 μM for 15 min) and washing, cells were imaged by confocal laser scanning microscopy (CLSM). […] After raising cellular Zn^2+ level by adding a Zn^2+ ionophore (pyrithione, 10 μM) and Zn^2+ (20 μM), a drastic enhancement of ZIGIR-2 signal was observed. […] Subsequent washout of zinc/pyrithione and addition of a Zn^2+ chelator TPEN depleted cellular Zn^2+ activity and dampened ZIGIR-2 intensity to nearly the background level (FIGS. 6D & 6E). Overall ZIGIR-2 intensity increased about 12-fold going from the low Zn^2+ (TPEN) to the high Zn^2+ state (Zn^2+/pyrithione), with a cell-to-cell variation of 12.04±4.8 fold (mean±SD, N=20 cells).
MIN-6 β cells were cultured as previously described (Li et al., 2011). HEK293 cells were cultured in DMEM medium supplemented with 10% FBS and 1% Penicillin/Streptomycin. T47D cells were cultured in RPMI-1640 medium supplemented with 10% FBS, 0.5% non-essential amino acids, 1 mM sodium pyruvate, 10 μg/mL geneticin and 0.01 mg/mL insulin. H1299 cells were cultured in RPMI-1640 medium supplemented with 10% FBS. All cells were maintained at 37° C. with 5% CO2. For cell imaging, cells were seeded in 35-mm petri dishes with glass bottoms (MatTek) and cultured for ˜24 hours to reach ˜50% confluence. Prior to labeling, cells were washed with a secretion assay buffer (SAB) containing 114 mM NaCl, 4.7 mM KCl, 1.2 mM KH2PO4, 2.5 mM CaCl2, 1.16 mM MgSO4, 3 mM glucose, and 20 mM Hepes (pH 7.4). Cells were then incubated with ZIGIRs (0.5-1 μM) in SAB at 37° C. for 15 min, and washed with SAB before imaging on a Zeiss LSM 780 confocal microscope using 561 nm laser for exciting ZIGIR-2 (Em 570-650 nm) and 514 nm laser for exciting ZIGIR-1 (Em 516-650 nm). LysoTracker Green (ThermoFisher Scientific) was used at 0.4 μM to label acidic organelles and was added to cells <5 min before imaging. […] ZIGIR colocalization with LysoTracker Green was analyzed and quantified with JACoP plugin of ImageJ.

Data set [2] relates to human islet endocrine cells. As to the kind of experiment: Flow cytometry analysis and sorting of human islet cells with ZIGIR-2. The data set is classed as cell-based. The note with it: ZIGIR-2, HPi2 and TM4SF4 labeling. The source says:
Thus far the majority of studies on ZnT8 and Zn^2+ signaling have been carried out in mouse islet cells, and less is known about the expression of ZnT8 and Zn^2+ distribution in human islet endocrine cells. To analyze granular Zn^2+ activity in human islets by flow cytometry, the inventors dispersed human islets into single cells and sequentially labeled them with ZIGIR-2 and antibodies reactive towards human pancreatic endocrine cells and α-cells (FIG. 12A), including the HPi2 antibody (Dorrell et al., 2008) and an antibody of a tetraspanin family member protein TM4SF4 (Muraro et al., 2016), respectively. The islet endocrine cells (HPi2+, FIG. 13) contained a subset of cells showing high ZIGIR-2 signal and low TM4SF4 expression (P1 subset, FIG. 12B). Immunofluorescence analysis of the sorted cells confirmed that the P1 subset was highly enriched with human β-cells (91%), together with a small percent of δ-cells (FIG. 12C). […] They obtained similar flow cytometry results from different human donors and confirmed high enrichments of β-cell or α-cell in P1 or P2 subset (including P2a and P2b), respectively (FIG. 14). […] In addition to containing more glucagon granules, P2a cells might also express more ZnT8 protein than P2b. Future studies using more quantitative techniques such as western blot should help address the issue.

Molecules are shown by their SMILES.

Broadly, the Kd is a measure of binding affinity in units of concentration. Higher therefore signals lower affinity. As to `CN(C)c1ccc2c(-c3ccc(NCCN(CCc4ccccn4)Cc4ccccn4)cc3C(=O)[O-])c3ccc(=[N+](C)C)cc-3oc2c1` [ZIGIR-2], the “FC (fold change in fluorescence brightness ϕfl×ε from Zn^2+-free to Zn^2+-bound state)” value in data set [1] turned out to be 34. This compound also gave a Kd in data set [1] (100 mM HEPES pH 7.4) of 0.31 µM. Also, in data set [1] (Table 2), the affinity, expressed as Kd, was 0.81 µM and the “Zn^2+ response (fold change)” value was found to be 34×. The “stability of intensity of labeled granules on repetitive imaging” value in the data set with MIN-6 β cells (MIN6 cells, imaged every 5 sec over ~30 min) was “remains stable”. For the same compound, the “increase of intensity from low Zn^2+ (TPEN) to high Zn^2+ state (Zn^2+/pyrithione)” value in the data set with MIN-6 β cells (MIN-6 cells, overall) is listed as “about 12 fold”. Besides, the “increase of intensity from TPEN to Zn^2+/pyrithione, cell-to-cell variation” value in the data set on MIN-6 β cells (mean±SD, N=20 cells) amounted to 12.04±4.8 fold. Moreover, in data set [2], the “α-cell purity of sorted P2a and P2b subsets” value was over 95%; the “β-cells in sorted P1 subset” value is 91%.

For the origin of these results see US11649228B2, “Zinc indicators for cellular imaging” (The Board of Regents of the University of Texas System, priority 2018, dated 2023).
